The supplement of paper PMC10307832

Legend:
Test in all cases: relative viability (nuclei count vs DMSO), 5 days (fraction); higher = more cells survive
[1] = system: COR-L23
Summary of the method: (§1)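 Lung cancer cell lines in 1536-well plates got either a single drug or a fixed anchor-drug dose together with five library-drug doses (not always all listed) in √10 steps, by pin tool, on the day after seeding. Nuclei were counted after 5 days, and relative viability is the treated-to-vehicle ratio of nuclei counts. Values are medians of duplicate plates.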

[2] = system: NCI-H2405
Summary of the method: as §1

[3] = system: NCI-H1793
Summary of the method: as §1

[4] = system: NCI-H1650
Summary of the method: as §1

[5] = system: NCI-H1993
Summary of the method: as §1

[6] = system: ABC-1
Summary of the method: as §1

[7] = system: HARA
Summary of the method: as §1

[8] = system: LK-2
Summary of the method: as §1

[9] = system: NCI-H2228
Summary of the method: as §1

[10] = system: NCI-H1944
Summary of the method: as §1

[11] = system: NCI-H838
Summary of the method: as §1

[12] = system: HCC-15
Summary of the method: as §1

[13] = system: NCI-H2009
Summary of the method: as §1

[14] = system: NCI-H23
Summary of the method: as §1

[15] = system: NCI-H1734
Summary of the method: as §1

[16] = system: EMC-BAC-2
Summary of the method: as §1

[17] = system: A-427
Summary of the method: as §1

[18] = system: ChaGo-K-1
Summary of the method: as §1

[19] = system: NCI-H2023
Summary of the method: as §1

[20] = system: UMC-11
Summary of the method: as §1

[21] = system: LC-2-ad
Summary of the method: as §1

[22] = system: SK-LU-1
Summary of the method: as §1

CC(C)Oc1cc(Nc2nc(N[C@@H](C)c3ccc(F)cn3)ncc2Cl)n[nH]1 [AZ23] + CCNC(=O)c1noc(-c2cc(C(C)C)c(O)cc2O)c1-c1ccc(CN2CCOCC2)cc1 [Luminespib] (partner 0.01 µM)
relative viability ([1]; first compound 0.01 µM): 0.405
relative viability ([1]; first compound 0.03162 µM): 0.814
relative viability ([1]; first compound 0.3162 µM): 0.869
relative viability ([2]; first compound 0.01 µM): 0.717
relative viability ([2]; first compound 0.03162 µM): 0.679
relative viability ([2]; first compound 0.3162 µM): 0.661
relative viability ([3]; first compound 0.01 µM): 0.158
relative viability ([3]; first compound 0.03162 µM): 0.194
relative viability ([3]; first compound 0.3162 µM): 0.143
relative viability ([4]; first compound 0.03162 µM): 0.202
relative viability ([4]; first compound 0.3162 µM): 0.195
relative viability ([5]; first compound 0.01 µM): 0.785
relative viability ([5]; first compound 0.03162 µM): 0.881
relative viability ([5]; first compound 0.3162 µM): 0.854
relative viability ([6]; first compound 0.03162 µM): 0.707
relative viability ([6]; first compound 0.3162 µM): 0.624
relative viability ([7]; first compound 0.03162 µM): 0.822
relative viability ([7]; first compound 0.3162 µM): 1.34
relative viability ([8]; first compound 0.01 µM): 0.185
relative viability ([8]; first compound 0.03162 µM): 0.189
relative viability ([8]; first compound 0.3162 µM): 0.177
relative viability ([9]; first compound 0.01 µM): 0.179
relative viability ([9]; first compound 0.03162 µM): 0.141
relative viability ([9]; first compound 0.3162 µM): 0.0999
relative viability ([10]; first compound 0.01 µM): 0.557
relative viability ([10]; first compound 0.03162 µM): 0.75
relative viability ([10]; first compound 0.3162 µM): 0.726
relative viability ([11]; first compound 0.01 µM): 0.229
relative viability ([11]; first compound 0.03162 µM): 0.278
relative viability ([11]; first compound 0.3162 µM): 0.345
relative viability ([12]; first compound 0.01 µM): 0.435
relative viability ([12]; first compound 0.03162 µM): 0.243
relative viability ([12]; first compound 0.3162 µM): 0.338
relative viability ([13]; first compound 0.01 µM): 1.05
relative viability ([13]; first compound 0.03162 µM): 1.17
relative viability ([13]; first compound 0.3162 µM): 1.1
relative viability ([14]; first compound 0.03162 µM): 0.229
relative viability ([14]; first compound 0.3162 µM): 0.204
relative viability ([15]; first compound 0.01 µM): 0.184
relative viability ([15]; first compound 0.03162 µM): 0.181
relative viability ([15]; first compound 0.3162 µM): 0.169
relative viability ([16]; first compound 0.01 µM): 1.11
relative viability ([16]; first compound 0.03162 µM): 1.3
relative viability ([16]; first compound 0.3162 µM): 1.23
relative viability ([17]; first compound 0.01 µM): 0.844
relative viability ([17]; first compound 0.03162 µM): 1.03
relative viability ([17]; first compound 0.3162 µM): 1.03
relative viability ([18]; first compound 0.01 µM): 0.637
relative viability ([18]; first compound 0.03162 µM): 0.687
relative viability ([18]; first compound 0.3162 µM): 0.7
relative viability ([19]; first compound 0.03162 µM): 0.829
relative viability ([19]; first compound 0.3162 µM): 0.674
relative viability ([20]; first compound 0.01 µM): 1.15
relative viability ([20]; first compound 0.03162 µM): 1.05
relative viability ([20]; first compound 0.3162 µM): 0.988
relative viability ([21]; first compound 0.01 µM): 1.26
relative viability ([21]; first compound 0.03162 µM): 0.965
relative viability ([21]; first compound 0.3162 µM): 0.93
relative viability ([22]; first compound 0.03162 µM): 0.216
relative viability ([22]; first compound 0.3162 µM): 0.18

C[C@@H]1CN(CC(=O)Nc2ccc3c(c2)Cc2cccc(-c4cc(=O)cc(N5CCOCC5)o4)c2S3)C[C@H](C)O1 + CCNC(=O)c1noc(-c2cc(C(C)C)c(O)cc2O)c1-c1ccc(CN2CCOCC2)cc1 [Luminespib] (partner 0.01 µM)
relative viability ([1]; first compound 0.04 µM): 0.793
relative viability ([1]; first compound 0.1265 µM): 0.705
relative viability ([1]; first compound 0.4 µM): 0.729
relative viability ([1]; first compound 4 µM): 0.458
relative viability ([2]; first compound 0.04 µM): 0.648
relative viability ([2]; first compound 0.1265 µM): 0.744
relative viability ([2]; first compound 0.4 µM): 0.726
relative viability ([2]; first compound 4 µM): 0.612
relative viability ([3]; first compound 0.04 µM): 0.141
relative viability ([3]; first compound 0.1265 µM): 0.177
relative viability ([3]; first compound 0.4 µM): 0.164
relative viability ([3]; first compound 4 µM): 0.135
relative viability ([4]; first compound 0.04 µM): 0.212
relative viability ([4]; first compound 0.1265 µM): 0.23
relative viability ([4]; first compound 0.4 µM): 0.18
relative viability ([4]; first compound 4 µM): 0.171
relative viability ([5]; first compound 0.04 µM): 0.872
relative viability ([5]; first compound 0.1265 µM): 0.913
relative viability ([5]; first compound 0.4 µM): 0.621
relative viability ([5]; first compound 4 µM): 0.762
relative viability ([6]; first compound 0.1265 µM): 0.64
relative viability ([6]; first compound 0.4 µM): 0.633
relative viability ([6]; first compound 4 µM): 0.521
relative viability ([7]; first compound 0.1265 µM): 0.675
relative viability ([7]; first compound 0.4 µM): 0.471
relative viability ([7]; first compound 4 µM): 0.89
relative viability ([8]; first compound 0.1265 µM): 0.202
relative viability ([8]; first compound 0.4 µM): 0.24
relative viability ([8]; first compound 4 µM): 0.188
relative viability ([9]; first compound 0.04 µM): 0.15
relative viability ([9]; first compound 0.1265 µM): 0.128
relative viability ([9]; first compound 0.4 µM): 0.171
relative viability ([9]; first compound 4 µM): 0.133
relative viability ([10]; first compound 0.04 µM): 0.676
relative viability ([10]; first compound 0.1265 µM): 0.729
relative viability ([10]; first compound 0.4 µM): 0.938
relative viability ([10]; first compound 4 µM): 0.824
relative viability ([11]; first compound 0.04 µM): 0.383
relative viability ([11]; first compound 0.1265 µM): 0.278
relative viability ([11]; first compound 0.4 µM): 0.286
relative viability ([11]; first compound 4 µM): 0.258
relative viability ([12]; first compound 0.04 µM): 0.358
relative viability ([12]; first compound 0.1265 µM): 0.282
relative viability ([12]; first compound 0.4 µM): 0.284
relative viability ([12]; first compound 4 µM): 0.27
relative viability ([13]; first compound 0.04 µM): 1.01
relative viability ([13]; first compound 0.1265 µM): 0.995
relative viability ([13]; first compound 0.4 µM): 0.983
relative viability ([13]; first compound 4 µM): 0.804
relative viability ([14]; first compound 0.04 µM): 0.205
relative viability ([14]; first compound 0.1265 µM): 0.213
relative viability ([14]; first compound 0.4 µM): 0.227
relative viability ([14]; first compound 4 µM): 0.178
relative viability ([15]; first compound 0.04 µM): 0.264
relative viability ([15]; first compound 0.1265 µM): 0.212
relative viability ([15]; first compound 0.4 µM): 0.195
relative viability ([15]; first compound 4 µM): 0.291
relative viability ([16]; first compound 0.04 µM): 1.28
relative viability ([16]; first compound 0.1265 µM): 1.17
relative viability ([16]; first compound 0.4 µM): 1.08
relative viability ([16]; first compound 4 µM): 1.19
relative viability ([17]; first compound 0.1265 µM): 0.884
relative viability ([17]; first compound 0.4 µM): 1.02
relative viability ([17]; first compound 4 µM): 1.02
relative viability ([18]; first compound 0.04 µM): 0.598
relative viability ([18]; first compound 0.1265 µM): 0.596
relative viability ([18]; first compound 0.4 µM): 0.512
relative viability ([18]; first compound 4 µM): 0.394
relative viability ([19]; first compound 0.04 µM): 0.691
relative viability ([19]; first compound 0.1265 µM): 0.75
relative viability ([19]; first compound 0.4 µM): 0.543
relative viability ([19]; first compound 4 µM): 0.37
relative viability ([20]; first compound 0.04 µM): 1.1
relative viability ([20]; first compound 0.1265 µM): 0.903
relative viability ([20]; first compound 0.4 µM): 1.03
relative viability ([20]; first compound 4 µM): 0.675
relative viability ([21]; first compound 0.04 µM): 0.986
relative viability ([21]; first compound 0.1265 µM): 0.912
relative viability ([21]; first compound 0.4 µM): 0.979
relative viability ([21]; first compound 4 µM): 0.953
relative viability ([22]; first compound 0.04 µM): 0.222
relative viability ([22]; first compound 0.1265 µM): 0.203
relative viability ([22]; first compound 0.4 µM): 0.23
relative viability ([22]; first compound 4 µM): 0.167
